From patent publication US20050203188A1, “Fungicidal mixtures based on benzamideoxime derivatives, benzophenones and on an azole” (priority 2002, published 2005)

How the values were obtained:
[1] = tested on: Erysiphe [syn. Blumeria] graminis forma specialis tritici; assay: Activity against mildew of wheat (protective spray, potted wheat seedlings cv. Kanzler); assay type: in vivo; settings: single active, 7 days after inoculation
Protocol: (§1) The active compounds are prepared separately or together as a 10% strength emulsion in a mixture of 63% by weight of cyclohexanone and 27% by weight of emulsifier and diluted with water to the desired concentration.
(§2) Evaluation is carried out by determining the infected leaf areas in percent. These percentages are converted into efficacies. The efficacy (E) is calculated as follows using Abbot's formula: E=(1−α)*100/β • α corresponds to the fungal infection of the treated plants in % and • β corresponds to the fungal infection of the untreated (control) plants in %
(§3) An efficacy of 0 means that the infection level of the treated plants corresponds to that of the untreated control plants; an efficacy of 100 means that the treated plants were not infected.
(§4) The expected efficacies of the active compound mixtures were determined using Colby's formula [S. R. Colby, Weeds 15, 20-22 (1967)] and compared with the observed efficacies. Colby's formula: E=x+y−x−y/100 • E expected efficacy, expressed in % of the untreated control, when using the mixture of the active compounds A and B at the concentrations a and b • x efficacy, expressed in % of the untreated control, when using active compound A at a concentration of a • y efficacy, expressed in % of.the untreated control, when using active compound B at a concentration of b
Leaves of potted wheat seedlings of the cultivar “Kanzler” were sprayed to runoff point with an aqueous suspension having the concentration of active compound stated below. The suspension or emulsion had been prepared from a stock solution comprising 10% of active compound in a mixture consisting of 85% of cyclohexanone and 5% of emulsifier. 24 hours after the spray coating had dried on, the seedlings were dusted with spores of mildew of wheat (Erysiphe [syn. Blumeria] graminis forma specialis tritici). The test plants were then placed in a greenhouse at temperatures between 20 and 24° C. and 60 to 90% relative atmospheric humidity. After 7 days, the extent of the mildew development was determined visually in % infection of the total leaf area.
The visually determined percentages of infected leaf area were converted into efficacies as % of the untreated control. An efficacy of 0 means the infection level of the treated plants corresponds to that of the untreated control; an efficacy of 100 means 0% infection. The expected efficacies of the combinations of active compounds were determined using Colby's formula (Colby, S. R. “Calculating synergistic and antagonistic responses of herbicide Combinations”, Weeds, 15, pp., 20-22, 1967) and compared with the observed efficacies.

Puccinia recondita = assay: Curative activity against brown rust of wheat (potted wheat seedlings cv. Kanzler); assay type: in vivo; settings: single active, 7 days
Protocol: as §1, §2, §3, §4
Leaves of potted wheat seedlings of the cultivar “Kanzler” were dusted with spores of brown rust (Puccinia recondita). The pots were then placed in a chamber with high atmospheric humidity (90 to 95%), at 20 to 22° C., for 24 hours. During this period of time, the spores germinated and the germinal tubes penetrated into the leaf tissue. The next day, the infected plants were sprayed to runoff point with an aqueous suspension having the concentration of active compound stated below. The suspension or emulsion had been prepared from a stock solution comprising 10% of active compound in a mixture consisting of 85% of cyclohexanone and 5% of emulsifier. After the spray coating had dried on, the test plants were cultivated in a greenhouse at temperatures between 20 and 22° C. and at 65 to 70% relative atmospheric humidity for 7 days. The extent of the rust fungus development on the leaves was then determined.
The visually determined percentages of infected leaf areas were converted into efficacies as % of the untreated control. An efficacy of 0 means that the infection level of the treated plants corresponds to that of the untreated control; an efficacy of 100 means 0% infection. The expected efficacies of the combinations of active compounds were determined using Colby's formula (Colby, S. R. “Calculating synergistic and antagonistic responses of herbicide Combinations”, Weeds, 15, pp. 20-22, 1967) and compared with the observed efficacies.

Compound	Efficacy in % of the untreated control ([1]; 0.015 ppm in spray liquor)	Efficacy in % of the untreated control ([1]; 0.06 ppm in spray liquor)	Efficacy in % of the untreated control ([1]; 0.25 ppm in spray liquor)	Efficacy in % of the untreated control ([1]; 1 ppm in spray liquor)	Efficacy in % of the untreated control (Puccinia recondita; 0.015 ppm in spray liquor)	Efficacy in % of the untreated control (Puccinia recondita; 0.06 ppm in spray liquor)	Efficacy in % of the untreated control (Puccinia recondita; 0.25 ppm in spray liquor)	Efficacy in % of the untreated control (Puccinia recondita; 1 ppm in spray liquor)
COc1cc(C)c(C(=O)c2c(OC)ccc(Br)c2C)c(OC)c1OC [Compound II = metrafenone, metrafenone]	33%	44%	56%	72%	0%	0%	0%	0%
Fc1ccc(C2(Cn3cncn3)OC2c2ccccc2Cl)cc1 (stereo not drawn) [Compound III = epoxiconazole, epoxiconazole]	0%	33%	44%	56%	0%	67%	89%	94%
COC(=O)N(OC)c1ccccc1COc1ccn(-c2ccc(Cl)cc2)n1 [Compound IV = pyraclostrobin, pyraclostrobin]	0%	0%	0%	33%	22%	33%	33%	78%
